{"source": "paper PMC10845954", "about": "“Novel antimicrobial peptides identified in legume plant, Medicago truncatula” (Microbiology Spectrum, 2024)", "tested_on": "leukemia (K562) cell line", "assay": "Cell viability (MTT assay)", "assay_type": "cell-based, human", "settings": "100 µM, 24 hrs exposure, absorbance 540 nm, cutoff 20%, mean of four independent experiments", "protocol": "Dulbecco’s modified Eagle medium (DMEM) supplemented with 10% fetal bovine serum (FBS) and 1% penicillin (10.000 IU/mL)/streptomycin (50 mg/mL) was used to grow the […] human leukemia cell line (K562) in flasks at 37°C in a humidified environment of 5% CO2/air.\nK562 cells were cultivated in DMEM with FBS 10% and penicillin–streptomycin 1%, and they were incubated at 37°C with 5% CO2 present. Using the MTT assay, the cytotoxicity of the three NCRs was evaluated. K562 cells were grown at a density of 3–4 × 10^4 cells per well in a 96-well plate and allowed to adhere for 24 hrs. […] Using a microplate reader, absorbance was measured at 540 nm. […]\nFig 7 The toxicity % of the NCRs (NCR094 and NCR992) toward leukemia cell line (K562). […] Absorbance was read at 540, and the toxicity% was calculated from four independent experiments, and the results were represented as average of the % toxicity and standard deviations from four independent experiments. […]\nThe cells were treated with were treated with 10-fold concentration (100, 10, 1, 0 μM) of NCR992.1 After 24 hrs exposure, MTT were added, and cells were incubated for 4 hrs. […] Absorbance was read at 540 and the toxicity% were calculated and the results were presented as means and error bars were ± SD values from four independent experiments.", "note": "Where a SMILES comes first, the peptide text is derived from it.", "data": [{"smiles": "CC[C@H](C)[C@H](NC(=O)[C@H](CCSC)NC(=O)CNC(=O)[C@H](Cc1ccccc1)NC(=O)[C@H](CCC(=O)O)NC(=O)[C@H](CS)NC(=O)[C@@H](N)CCSC)C(=O)N[C@@H](CCCNC(=N)N)C(=O)N[C@@H](CCCNC(=N)N)C(=O)N[C@@H](CS)C(=O)N[C@H](C(=O)N[C@@H](CO)C(=O)N[C@@H](Cc1ccc(O)cc1)C(=O)N[C@@H](CCCCN)C(=O)N[C@@H](CS)C(=O)N[C@@H](CCC(N)=O)C(=O)N[C@@H](CS)C(=O)N[C@@H](Cc1c[nH]cn1)C(=O)N[C@@H](CCC(=O)O)C(=O)N[C@@H](C)C(=O)N[C@@H](Cc1ccc(O)cc1)C(=O)O)[C@@H](C)CC", "note": "[NCR992] (H-MCEFGMIRRCISYKCQCHEAY-OH; N-terminus and C-terminus assumed)", "values": [{"measurement": "toxicity % toward K562", "result": 8.54, "unit": "%"}]}]}
